Experimental data taken from patent US7291641B2, “Derivatives of heterocycles with 5 members, their preparation and their use as medicaments” (Societe de Conseils de Recherches et d'Applications …, priority 1999, dated 2007).

melting point	SMILES
104 to 106 °C	CC(C)(C)OC(=O)N[C@H](Cc1c[nH]c2ccccc12)c1nc(C(C)(C)C)c[nH]1 [Example 50, tert-butyl (1R)-1-(4-tert-butyl-1H-imidazol-2-yl)-2-(1H-indol-3-yl)-ethylcarbamate]
186 to 188 °C	CC(C)(C)CC(=O)NCCc1nc(-c2ccc(-c3ccccc3)cc2)c[nH]1 [Example 61, N-[2-(4-[1,1′-biphenyl]-4-yl-1H-imidazol-2-yl)ethyl]-3,3-dimethyl-butanamide]
130 to 132 °C	CCCCOC(=O)NCc1nc(-c2ccc(-c3ccccc3)cc2)c[nH]1 [Example 78, butyl (4-[1,1′-biphenyl]-4-yl-1H-imidazol-2-yl)methylcarbamate]
172 to 176 °C	Fc1cccc(-c2c[nH]c([C@@H](NC3CCC3)C3CCCCC3)n2)c1 [Example 87, N-{(S)-cyclohexyl[4-(3-fluorophenyl)-1H-imidazol-2-yl]methyl}-cyclobutanamine]
100 to 102 °C	c1ccc(CN[C@H](Cc2c[nH]c3ccccc23)c2nc(-c3ccccc3)c[nH]2)cc1 [Example 88, (1R)-N-benzyl-2-(1H-indol-3-yl)-1-(4-phenyl-1H-imidazol-2-yl)ethanamine]
118 to 120 °C	c1ccc(CN[C@@H](Cc2c[nH]c3ccccc23)c2nc(-c3ccccc3)c[nH]2)cc1 [Example 93, (1S)-N-benzyl-2-(1H-indol-3-yl)-1-(4-phenyl-1H-imidazol-2-yl)ethanamine]
146 to 148 °C	c1ccc(CN[C@H](Cc2c[nH]c3ccccc23)c2nc(-c3ccccc3)c(-c3ccccc3)[nH]2)cc1 [Example 94, (1R)-N-benzyl-1-(4,5-diphenyl-1H-imidazol-2-yl)-2-(1H-indol-3-yl)ethanamine]
120 to 122 °C	Cc1[nH]c([C@@H](Cc2c[nH]c3ccccc23)NCc2ccccc2)nc1-c1ccccc1 [Example 95, (1R)-N-benzyl-2-(1H-indol-3-yl)-1-(5-methyl-4-phenyl-1H-imidazol-2-yl)ethanamine]
208 to 210 °C	CC(C)(C)OC(=O)N[C@H](Cc1c[nH]c2ccccc12)c1nc(-c2ccccc2)c[nH]1 [Example 96, tert-butyl (1R)-2-(1H-indol-3-yl)-1-(4-phenyl-1H-imidazol-2-yl)-ethylcarbamate]
218 to 220 °C	O=C(N[C@H](Cc1c[nH]c2ccccc12)c1nc(-c2ccccc2)c[nH]1)c1ccccc1 [Example 98, N-[(1R)-2-(1H-indol-3-yl)-1-(4-phenyl-1H-imidazol-2-yl)ethyl]benzamide]
105 to 108 °C	O=C(N[C@H](Cc1c[nH]c2ccccc12)c1nc(-c2ccccc2)c[nH]1)OCc1ccccc1 [Example 99, benzyl (1R)-2-(1H-indol-3-yl)-1-(4-phenyl-1H-imidazol-2-yl)ethylcarbamate]
134 to 136 °C	c1ccc(CN[C@H](Cc2c[nH]c3ccccc23)c2nc(-c3ccccc3)cs2)cc1 [Example 100, (1R)-N-benzyl-2-(1H-indol-3-yl)-1-(4-phenyl-1,3-thiazol-2-yl)ethanamine]
108 to 110 °C	O=C(N[C@H](Cc1c[nH]c2ccccc12)c1nc(-c2ccccc2)cs1)c1ccccc1 [Example 101, N-[(1R)-2-(1H-indol-3-yl)-1-(4-phenyl-1,3-thiazol-2-yl)-ethyl]benzamide]
220 to 222 °C	CC(C)(C)OC(=O)N[C@H](Cc1c[nH]c2ccccc12)c1nc(-c2ccc([N+](=O)[O-])cc2)c[nH]1 [Example 102, tert-butyl (1R)-2-(1H-indol-3-yl)-1-[4-(4-nitrophenyl)-1H-imidazol-2-yl]-ethylcarbamate]
170 to 172 °C	CC(C)(C)OC(=O)NCc1nc(-c2ccccc2)c[nH]1 [Example 103, tert-butyl (4-phenyl-1H-imidazol-2-yl)methylcarbamate]
140 to 142 °C	CC(C)(C)OC(=O)NCc1nc(-c2ccccc2)cn1Cc1ccccc1 [Example 104, tert-butyl (1-benzyl-4-phenyl-1H-imidazol-2-yl)methylcarbamate]
94 to 96 °C	c1ccc(OCCN[C@H](Cc2c[nH]c3ccccc23)c2nc(-c3ccccc3)c[nH]2)cc1 [Example 108, (1R)-2-(1H-indol-3-yl)-N-(2-phenoxyethyl)-1-(4-phenyl-1H-imidazol-2-yl)ethanamine]
60 to 62 °C	c1ccc(CNCc2nc(-c3ccccc3)cn2Cc2ccccc2)cc1 [Example 110, N-benzyl(1-benzyl-4-phenyl-1H-imidazol-2-yl)methanamine]

melting point	SMILES
152 to 154 °C	c1ccc(CN[C@H](Cc2csc3ccccc23)c2nc(-c3ccccc3)c[nH]2)cc1 [Example 111, (1R)-2-(1-benzothien-3-yl)-N-benzyl-1-(4-phenyl-1H-imidazol-2-yl)ethanamine]
124 to 126 °C	c1ccc(OCCN[C@H](Cc2c[nH]c3ccccc23)c2nc(-c3ccccc3)cs2)cc1 [Example 112, (1R)-2-(1H-indol-3-yl)-N-(2-phenoxyethyl)-1-(4-phenyl-1,3-thiazol-2-yl)ethanamine]
170 to 172 °C	CC(C)(C)OC(=O)NC1(c2nc(-c3ccccc3)c[nH]2)CCCCC1 [Example 113, tert-butyl 1-(4-phenyl-1H-imidazol-2-yl)cyclohexylcarbamate]
114 to 116 °C	c1ccc(CNC2(c3nc(-c4ccccc4)c[nH]3)CCCCC2)cc1 [Example 123, N-benzyl-1-(4-phenyl-1H-imidazol-2-yl)cyclohexanamine]
88 to 90 °C	CC(C)C[C@@H](NC(=O)OC(C)(C)C)c1nc(-c2ccccc2)c[nH]1 [Example 124, tert-butyl (1R)-3-methyl-1-(4-phenyl-1H-imidazol-2-yl)butylcarbamate]
134 to 135 °C	CC(C)C[C@@H](NCc1ccccc1)c1nc(-c2ccccc2)c[nH]1 [Example 125, (1R)-N-benzyl-3-methyl-1-(4-phenyl-1H-imidazol-2-yl)-1-butanamine]
130 to 132 °C	CC(C)(C)OC(=O)NC(C)(C)c1nc(-c2ccccc2)c[nH]1 [Example 127, tert-butyl 1-methyl-1-(4-phenyl-1H-imidazol-2-yl)ethylcarbamate]
72 to 74 °C	CC(C)(C)OC(=O)N[C@H](CCc1ccccc1)c1nc(-c2ccccc2)c[nH]1 [Example 129, tert-butyl (1R)-3-phenyl-1-(4-phenyl-1H-imidazol-2-yl)propylcarbamate]
184 to 185 °C	CC(C)(C)OC(=O)N[C@H](CC1CCCCC1)c1nc(-c2ccccc2)c[nH]1 [Example 130, tert-butyl (1R)-2-cyclohexyl-1-(4-phenyl-1H-imidazol-2-yl)ethylcarbamate]
52 to 54 °C	c1ccc(CN[C@H](CC2CCCCC2)c2nc(-c3ccccc3)c[nH]2)cc1 [Example 134, (1R)-N-benzyl-2-cyclohexyl-1-(4-phenyl-1H-imidazol-2-yl)ethanamine]
142 to 144 °C	c1ccc(CC[C@@H](NCc2ccccc2)c2nc(-c3ccccc3)c[nH]2)cc1 [Example 135, (1R)-N-benzyl-3-phenyl-1-(4-phenyl-1H-imidazol-2-yl)-1-propanamine]
152 to 154 °C	CS(=O)(=O)c1ccc(-c2c[nH]c([C@@H](NC3CCCCC3)C3CCCCC3)n2)cc1 [Example 138, N-{(S)-cyclohexyl[4-(4-methylsulphonylphenyl)-1H-imidazol-2-yl]methyl}cyclohexanamine]
136 to 138 °C	CC(C)(NCc1ccccc1)c1nc(-c2ccccc2)c[nH]1 [Example 139, N-benzyl-2-(4-phenyl-1H-imidazol-2-yl)-2-propanamine]
70 to 74 °C	c1ccc(CN(Cc2ccccc2)Cc2nc(-c3ccc(-c4ccccc4)cc3)c[nH]2)cc1 [Example 144, N,N-dibenzyl(4-[1,1′-biphenyl]4-yl-1H-imidazol-2-yl)methanamine]
142 to 143 °C	CC(C)(C)OC(=O)N[C@@H](Cc1c[nH]c2ccccc12)c1nc(-c2ccccc2)c(-c2ccccc2)[nH]1 [Example 147, tert-butyl (1S)-1-(4,5-diphenyl-1H-imidazol-2-yl)-2-(1H-indol-3-yl)ethylcarbamate]
96 to 100 °C	Cn1cc(-c2ccccc2)nc1[C@@H](Cc1c[nH]c2ccccc12)NC(=O)OC(C)(C)C [Example 148, tert-butyl (1R)-2-(1H-indol-3-yl)-1-(1-methyl-4-phenyl-1H-imidazol-2-yl)ethylcarbamate]
70 to 72 °C	Cc1[nH]c(CN(C)C(=O)OC(C)(C)C)nc1-c1ccccc1 [Example 153, tert-butyl methyl[(5-methyl-4-phenyl-1H-imidazol-2-yl)methyl]carbamate]

SMILES	melting point
CC(C)(C)OC(=O)NCc1nc(-c2ccc(-c3ccccc3)cc2)c[nH]1 [Example 137, 4-(2-{[(tert-butoxycarbonyl)amino]methyl}-1H-imidazol-4-yl)-1,1′-biphenyl]	100 to 102 °C
CC(C)(C)OC(=O)NCc1nc(-c2ccc(-c3ccccc3)cc2)cn1Cc1ccccc1 [Example 140, 4-(1-benzyl-2-{[(tert-butoxycarbonyl)amino]methyl}-1H-imidazol-4-yl)-1,1′-biphenyl]	167 to 169 °C
Cn1cc(-c2ccc(-c3ccccc3)cc2)nc1CNC(=O)OC(C)(C)C [Example 146, 4-(2-{[(tert-butoxycarbonyl)amino]methyl}-1-methyl-1H-imidazol-4-yl)-1,1′-biphenyl]	208 to 210 °C
CN(Cc1nc(-c2ccc(-c3ccccc3)cc2)c[nH]1)C(=O)OC(C)(C)C [Example 149, 4-(2-{[(tert-butoxycarbonyl)(methyl)amino]methyl}-1H-imidazol-4-yl)-1,1′-biphenyl]	72 to 74 °C
CC(C)(C)OC(=O)N[C@H](CC1CCCCC1)c1nc(-c2ccc(-c3ccccc3)cc2)c[nH]1 [Example 150, 4-(2-{(1R)-1-[(tert-butoxycarbonyl)amino]-2-cyclohexylethyl}-1H-imidazol-4-yl)-1,1′-biphenyl]	112 to 114 °C
CC(C)(C)OC(=O)NCCc1nc(-c2ccc(-c3ccccc3)cc2)c[nH]1 [Example 152, 4-(2-{2-[(tert-butoxycarbonyl)amino]ethyl}-1H-imidazol-4-yl)-1,1′-biphenyl]	140 to 142 °C
